Measured values as given in US20140303182A1, “PHARMACEUTICALLY ACCEPTABLE SALTS OF QUINOLINONE COMPOUNDS HAVING IMPROVED PHARMACEUTICAL PROPERTIES” (NOVARTIS AG, priority 2003, published 2014).
“And” between values parts separate entries of the source, which are not always exact repeats. Identical values can stand only once. Counter-ions that a name gives are not always drawn. Like-named read-outs stand apart in the source and are kept apart here.

Legend:
[1] = Aqueous equilibrium solubility and pH at saturation; format: physicochemical; conditions: water, 24 hours at 22° C., HPLC, free base equivalent
[2] = Crystallinity by XRPD; format: physicochemical
Method: XRPD analyses were carried out on a Shimadzu XRD-6000 X-ray powder diffractometer using Cu Kα radiation. The instrument is equipped with a fine focus X-ray tube. The tube voltage and amperage were set to 40 kV and 40 mA, respectively. The divergence and scattering slits were set at 1° and the receiving slit was set at 0.15 mm. Diffracted radiation was detected by a NaI scintillation detector. A theta-two theta continuous scan at 3°/minute (0.4 seconds/0.02° step) from […] was used.

[3] = Chemical stability, solid state (HPLC); conditions: solid state
[4] = Hygroscopicity, moisture sorption/desorption; format: physicochemical
[5] = Compaction studies; format: physicochemical; conditions: 200 mg at 5000 psi; for Tensile strength of compact: SC = Strong Cobb
[6] = Crystal morphology, polarized light microscope; format: physicochemical; conditions: 10× and 40× magnification
[7] = Chemical stability, solution state (HPLC); format: physicochemical
[8] = 30° C./60% Relative humidity, listed as Sulphate
[9] = 40° C./70% Relative humidity, listed as Sulphate

## CN1CCN(c2ccc3nc(-c4c(N)c5c(F)cccc5[nH]c4=O)[nH]c3c2)CC1 [Bis-Acetate, 4-Amino-5-fluoro-3-[6-(4-methylpiperazin-1-yl)-1H-benzimidazol-2-yl]-1H-quinolin-2-one]
[1]
  Solubility: 31.9 mg FB/mL
[2]
  Crystallinity: mixture of crystalline
[2]; listed as bis-acetate
  Crystallinity: mixture of crystalline and amorphous material

## CN1CCN(c2ccc3nc(-c4c(N)c5c(F)cccc5[nH]c4=O)[nH]c3c2)CC1 [Bis-Glycinate, 4-Amino-5-fluoro-3-[6-(4-methylpiperazin-1-yl)-1H-benzimidazol-2-yl]-1H-quinolin-2-one]
[1]
  Solubility: 0.11 mg FB/mL

## CN1CCN(c2ccc3nc(-c4c(N)c5c(F)cccc5[nH]c4=O)[nH]c3c2)CC1 [Bis-Lactate, 4-Amino-5-fluoro-3-[6-(4-methylpiperazin-1-yl)-1H-benzimidazol-2-yl]-1H-quinolin-2-one]
[3]; 30° C./60% Relative humidity
  Area % at Time = 0: 98.71 Area %
  Area % at Time = 6 weeks: 98.64 Area %
[3]; 40° C./70% Relative humidity
  Area % at Time = 0: 98.99 Area %
  Area % at Time = 6 weeks: 97.92 Area %
[1]
  Solubility: 304 mg FB/mL
[2]
  Crystallinity: mixture of crystalline
[2]; listed as bis-lactate
  Crystallinity: mixture of crystalline and amorphous material

## CN1CCN(c2ccc3nc(-c4c(N)c5c(F)cccc5[nH]c4=O)[nH]c3c2)CC1 [Bis-mesylate, 4-Amino-5-fluoro-3-[6-(4-methylpiperazin-1-yl)-1H-benzimidazol-2-yl]-1H-quinolin-2-one]
[3]; 30° C./60% Relative humidity
  Area % at Time = 0: 99.01 Area %
  Area % at Time = 6 weeks: 98.12 Area %
[3]; 40° C./70% Relative humidity
  Area % at Time = 0: 98.78 Area %
  Area % at Time = 6 weeks: 98.35 Area %
[2]
  Crystallinity: mixture of crystalline
[2]; listed as bis-mesylate
  Crystallinity: crystalline

## CN1CCN(c2ccc3nc(-c4c(N)c5c(F)cccc5[nH]c4=O)[nH]c3c2)CC1 [BisHCl, 4-Amino-5-fluoro-3-[6-(4-methylpiperazin-1-yl)-1H-benzimidazol-2-yl]-1H-quinolin-2-one]
[1]
  Solubility: 42 mg FB/mL

## CN1CCN(c2ccc3nc(-c4c(N)c5c(F)cccc5[nH]c4=O)[nH]c3c2)CC1 [Glycinate, 4-Amino-5-fluoro-3-[6-(4-methylpiperazin-1-yl)-1H-benzimidazol-2-yl]-1H-quinolin-2-one]
[1]
  Solubility: 0.0638 mg FB/mL

## CN1CCN(c2ccc3nc(-c4c(N)c5c(F)cccc5[nH]c4=O)[nH]c3c2)CC1 [Hemi-malate, 4-Amino-5-fluoro-3-[6-(4-methylpiperazin-1-yl)-1H-benzimidazol-2-yl]-1H-quinolin-2-one]
[1]
  Solubility: 6.39 mg FB/mL
[2]
  Crystallinity: crystalline

## CN1CCN(c2ccc3nc(-c4c(N)c5c(F)cccc5[nH]c4=O)[nH]c3c2)CC1 [Hydrochloride, 4-Amino-5-fluoro-3-[6-(4-methylpiperazin-1-yl)-1H-benzimidazol-2-yl]-1H-quinolin-2-one]
[1]
  Solubility: 26.3 mg FB/mL

## CN1CCN(c2ccc3nc(-c4c(N)c5c(F)cccc5[nH]c4=O)[nH]c3c2)CC1 [Maleate, 4-Amino-5-fluoro-3-[6-(4-methylpiperazin-1-yl)-1H-benzimidazol-2-yl]-1H-quinolin-2-one]
[1]
  Solubility: 0.866 mg FB/mL

## CN1CCN(c2ccc3nc(-c4c(N)c5c(F)cccc5[nH]c4=O)[nH]c3c2)CC1 [Mono-acetate, 4-Amino-5-fluoro-3-[6-(4-methylpiperazin-1-yl)-1H-benzimidazol-2-yl]-1H-quinolin-2-one]
[1]
  Solubility: 84.4 mg FB/mL
[1]; listed as Acetate
  Solubility: 15.4 mg FB/mL
[2]
  Crystallinity: amorphous
[2]; listed as Acetate
  Crystallinity: mixture of crystalline
[2]; listed as acetate salt
  Crystallinity: amorphous

## CN1CCN(c2ccc3nc(-c4c(N)c5c(F)cccc5[nH]c4=O)[nH]c3c2)CC1 [Mono-citrate, 4-Amino-5-fluoro-3-[6-(4-methylpiperazin-1-yl)-1H-benzimidazol-2-yl]-1H-quinolin-2-one]
[1]
  Solubility: 0.456 mg FB/mL
[1]; listed as Citrate
  Solubility: 27.2 mg FB/mL
[2]
  Crystallinity: crystalline
[2]; listed as citrate
  Crystallinity: crystalline

## CN1CCN(c2ccc3nc(-c4c(N)c5c(F)cccc5[nH]c4=O)[nH]c3c2)CC1 [Mono-malate, 4-Amino-5-fluoro-3-[6-(4-methylpiperazin-1-yl)-1H-benzimidazol-2-yl]-1H-quinolin-2-one]
[1]; listed as L-Malate
  Solubility: 69 mg FB/mL
[4]
  hygroscopicity (verdict): non-hygroscopic
[5]
  Forms Compact: form compacts
[2]
  Crystallinity: crystalline
[2]; listed as L-Malate
  Crystallinity: mixture of crystalline
[2]; listed as L-malate
  Crystallinity: mixture of crystalline and amorphous material
[6]
  Morphology: needle
[7]; 5° C.
  Area % at Time = 0: 98.70 Area %
  Area % at Time = 7 days: 98.69 Area %
[7]; ambient temperature
  Area % at Time = 0: 98.70 Area %
  Area % at Time = 7 days: 98.65 Area %

## CN1CCN(c2ccc3nc(-c4c(N)c5c(F)cccc5[nH]c4=O)[nH]c3c2)CC1 [Mono-mesylate, 4-Amino-5-fluoro-3-[6-(4-methylpiperazin-1-yl)-1H-benzimidazol-2-yl]-1H-quinolin-2-one]
[3]; 30° C./60% Relative humidity
  Area % at Time = 0: 98.80 Area %
  Area % at Time = 6 weeks: 98.68 Area %
[3]; 40° C./70% Relative humidity
  Area % at Time = 0: 98.89 Area %
  Area % at Time = 6 weeks: 98.7 Area %
[1]
  Solubility: 185 mg FB/mL and 180 mg FB/mL
[1]; listed as Mesylate
  Solubility: 22.3 mg FB/mL
[5]
  Forms Compact: form compacts
[5]; listed as Mesylate-trial 1
  Tensile strength of compact: 6.9 SC
  Forms Compact: Yes
  Thickness of compact: 2.77 mm
[5]; listed as Mesylate-trial 2
  Tensile strength of compact: 17.9 SC
  Forms Compact: Yes
  Thickness of compact: 2.87 mm
[2]
  Crystallinity: crystalline
[2]; listed as Mesylate
  Crystallinity: mixture of crystalline
[2]; listed as mesylate
  Crystallinity: crystalline
[2]; listed as mono-mesylate
  Crystallinity: mixture of crystalline and amorphous material
[6]
  Morphology: varies from plate to needle
[6]; listed as Mesylate-trial 1
  Morphology: Plate
[6]; listed as Mesylate-trial 2
  Morphology: Needle
[7]; 5° C.
  Area % at Time = 0: 98.70 Area %
  Area % at Time = 7 days: 98.76 Area %
[7]; ambient temperature
  Area % at Time = 0: 98.70 Area %
  Area % at Time = 7 days: 98.77 Area %

## CN1CCN(c2ccc3nc(-c4c(N)c5c(F)cccc5[nH]c4=O)[nH]c3c2)CC1 [Mono-tartrate, 4-Amino-5-fluoro-3-[6-(4-methylpiperazin-1-yl)-1H-benzimidazol-2-yl]-1H-quinolin-2-one]
[1]; listed as L-Tartrate
  Solubility: 103.4 mg FB/mL
[2]
  Crystallinity: crystalline
[2]; listed as L-Tartrate
  Crystallinity: mixture of crystalline
[2]; listed as L-tartrate
  Crystallinity: mixture of crystalline and amorphous material

## CN1CCN(c2ccc3nc(-c4c(N)c5c(F)cccc5[nH]c4=O)[nH]c3c2)CC1 [Nitrate, 4-Amino-5-fluoro-3-[6-(4-methylpiperazin-1-yl)-1H-benzimidazol-2-yl]-1H-quinolin-2-one]
[1]
  Solubility: 6.7 mg FB/mL

## CN1CCN(c2ccc3nc(-c4c(N)c5c(F)cccc5[nH]c4=O)[nH]c3c2)CC1 [Phosphate, 4-Amino-5-fluoro-3-[6-(4-methylpiperazin-1-yl)-1H-benzimidazol-2-yl]-1H-quinolin-2-one]
[3]; 30° C./60% Relative humidity
  Area % at Time = 0: 98.47 Area %
  Area % at Time = 6 weeks: 99.28 Area %
[3]; 40° C./70% Relative humidity
  Area % at Time = 0: 98.84 Area %
  Area % at Time = 6 weeks: 98.86 Area %
[1]
  Solubility: 13.8 mg FB/mL
[2]
  Crystallinity: mixture of crystalline
[2]; listed as phosphate
  Crystallinity: mixture of crystalline and amorphous material

## CN1CCN(c2ccc3nc(-c4c(N)c5c(F)cccc5[nH]c4=O)[nH]c3c2)CC1 [Sulfate, 4-Amino-5-fluoro-3-[6-(4-methylpiperazin-1-yl)-1H-benzimidazol-2-yl]-1H-quinolin-2-one]
[3]; [8]
  Area % at Time = 0: 98.75 Area %
  Area % at Time = 6 weeks: 99.39 Area %
[3]; [9]
  Area % at Time = 0: 98.96 Area %
  Area % at Time = 6 weeks: 98.9 Area %
[1]
  Solubility: 19.7 mg FB/mL
[2]
  Crystallinity: mixture of crystalline
[2]; listed as sulfate
  Crystallinity: mixture of crystalline and amorphous material
